What was measured:
Format in all cases: in vivo
Myzus persicae = Myzus persicae (green peach aphid), mixed population, feeding/contact (sMP); conditions: sensitive strain, pepper plants, spray, mortality 5 days after treatment; 0 = BP80 >50 ppm
Method: Myzus persicae (Green Peach Aphid), Mixed Population, Feeding/Contact (sMP)
Pepper plants were infested with an Myzus persicae population of mixed ages. One day after infestation the plants were treated with the diluted test solutions in a spray chamber. 5 days after treatment samples were assessed for mortality.

Resistant Myzus persicae = Resistant Myzus persicae (rMP); conditions: resistant strain, pepper plants, spray, mortality 5 days after treatment; 0 = BP80 >50 ppm
Resistant Bemisia tabaci = Resistant Bemisia tabaci (rBT); conditions: resistant strain biotype Q, adults on cotton leaf discs, mortality 4 days after treatment; 0 = BP80 >50 ppm
Method: (§1) Cotton leaf discs were placed upside down in petri dishes on water agar and treated with the diluted test solutions in a spray chamber. After drying, leaf discs were infested with 10 adult Bemisia tabaci. Dishes were covered with a fabric filter and sealed with a perforated plastic lid. 4 days after treatment samples were assessed for mortality.
Resistant Bemisia tabaci (rBT)
Biotype Q originally field-collected in 2000 from Almeria, Spain. […] The strain carried the mutation L925I in the voltage-gated sodium channel conferring resistance to pyrethroids. It also had higher expression of the p450 CYP6CM1 conferring metabolic resistance to neonicotinoids.

Bemisia tabaci = Bemisia tabaci (cotton whitefly), adult, feeding/contact (sBT); conditions: sensitive strain, adults on cotton leaf discs, mortality 4 days after treatment; 0 = BP80 >50 ppm
Method: Bemisia tabaci (Cotton Whitefly), Adult, Feeding/Contact (sBT)
as §1

Which results are given for `CC[S@@](=N)(=O)c1cc(C2(C#N)CC2)cnc1-c1nc2cc(C(F)(F)F)cnc2n1C` [P24, (R)-1-[5-(ethyl-sulfonimidoyl)-6-[3-methyl-6-(trifluoromethyl)imidazo[4,5-b]pyridin-2-yl]-3-pyridyl]cyclo-propanebonitrile]?
pBP80 s-MP (Myzus persicae): 5.2; pBP80 r-MP (Resistant Myzus persicae): 4.5; pBP80 rBT (Resistant Bemisia tabaci): 3.9; pBP80 sBT (Bemisia tabaci): 5.1

Source: US20260271928A1, “CONTROL OF PESTS RESISTANT TO INSECTICIDES” (Syngenta Crop Protection Ag, priority 2023, published 2026)
